What follows are compounds tested against KRas G12D (Homo sapiens (Human), UniProt P01116, G12D) (assay: KRas G12D Binding Assay (TR-FRET displacement of Cy5 labelled tracer)). Conditions: GDP-loaded KRAS G12D (amino acids 1:169), 60 minute incubation at 22° C.
Method: After a 60 minute incubation at 22° C., the reaction was measured using a PerkinElmer EnVision multimode plate reader via TR-FRET dual wavelength detection, and the percent of control (POC) calculated using a ratiometric emission factor. […] The POC values were fit to a 4-parameter logistic curve and the IC50 value was determined as the concentration where the curve crosses 50 POC.
ND stands for “not determined.”

KRas G12D, sequence (P01116 other isoform, or with tags, fused parts or gaps G12D): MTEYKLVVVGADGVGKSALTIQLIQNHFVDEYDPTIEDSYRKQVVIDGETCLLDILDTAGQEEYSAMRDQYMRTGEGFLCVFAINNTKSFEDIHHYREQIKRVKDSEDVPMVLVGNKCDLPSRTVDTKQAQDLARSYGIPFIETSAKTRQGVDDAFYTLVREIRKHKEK

Point of comparison: `O=C(O[C@@H]1CN2CCC[C@]2(COc2nc(N3C[C@H]4CC[C@@H](C3)N4)c3cnc(-c4cccc5cccc(Cl)c45)c(F)c3n2)C1)N1CCOCC1` [Example 436, (2S,7aR)-7a-(((4-((1R,5S)-3,8-diazabicyclo[3.2.1]octan-3-yl)-7-(8-chloronaphthalen-1-yl)-8-fluoropyrido[4,3-d]pyrimidin-2-yl)oxy)methyl)hexahydro-1H-pyrrolizin-2-yl morpholine-4-carboxylate], IC50 48.3 nM. Against it:
- CN(C)C(=O)NC[C@H]1CC[C@@]2(COc3nc(N4CC5CCC(C4)N5)c4cnc(-c5cccc6cccc(Cl)c56)c(F)c4n3)CCCN12 [Example 412, 3-((7a-(((4-(3,8-diazabicyclo[3.2.1]octan-3-yl)-7-(8-chloronaphthalen-1-yl)-8-fluoropyrido[4,3-d]pyrimidin-2-yl)oxy)methyl)hexahydro-1H-pyrrolizin-3-yl)methyl)-1,1-dimethylurea] — 2.7-fold lower, 17.7 nM
- Fc1c(-c2cccc3cccc(Cl)c23)ncc2c(N3C[C@H]4CC[C@@H](C3)N4)nc(OC[C@]34CCCN3[C@@H](Cn3cccn3)CC4)nc12 [Example 418, 2-(((3R,7aR)-3-((1H-pyrazol-1-yl)methyl)hexahydro-1H-pyrrolizin-7a-yl)methoxy)-4-((1R,5S)-3,8-diazabicyclo[3.2.1]octan-3-yl)-7-(8-chloronaphthalen-1-yl)-8-fluoropyrido[4,3-d]pyrimidine] — 6.4-fold lower, 7.5 nM
- Fc1c(-c2cccc3cccc(C(F)(F)F)c23)ncc2c(N3C[C@H]4CC[C@@H](C3)N4)nc(OC[C@@]34CCCN3C[C@H](F)C4)nc12 [Example 419, 4-((1R,5S)-3,8-diazabicyclo[3.2.1]octan-3-yl)-8-fluoro-2-(((2R,7aS)-2-fluorotetrahydro-1H-pyrrolizin-7a(5H)-yl)methoxy)-7-(8-(trifluoromethyl)naphthalen-1-yl)pyrido[4,3-d]pyrimidine] — within 1.5-fold, 50.9 nM
- CS(=O)(=O)NC[C@H]1CC[C@@]2(COc3nc(N4C[C@H]5CC[C@@H](C4)N5)c4cnc(-c5cccc6cccc(Cl)c56)c(F)c4n3)CCCN12 [Example 420, N-(((3R,7aR)-7a-(((4-((1R,5S)-3,8-diazabicyclo[3.2.1]octan-3-yl)-7-(8-chloronaphthalen-1-yl)-8-fluoropyrido[4,3-d]pyrimidin-2-yl)oxy)methyl)hexahydro-1H-pyrrolizin-3-yl)methyl)methanesulfonamide] — 2.4-fold lower, 20 nM
- CC(C)c1ncccc1-c1ncc2c(N3C[C@H]4CC[C@@H](C3)N4)nc(OC[C@@]34CCCN3C[C@H](F)C4)nc2c1F [Example 421, 4-((1R,5S)-3,8-diazabicyclo[3.2.1]octan-3-yl)-8-fluoro-2-(((2R,7aS)-2-fluorohexahydro-1H-pyrrolizin-7a-yl)methoxy)-7-(2-isopropylpyridin-3-yl)pyrido[4,3-d]pyrimidine] — 160-fold higher, 7750 nM
- COCc1cccc2cccc(-c3ncc4c(N5C[C@H]6CC[C@@H](C5)N6)nc(OC[C@@]56CCCN5C[C@H](F)C6)nc4c3F)c12 [Example 423, 4-((1R,5S)-3,8-diazabicyclo[3.2.1]octan-3-yl)-8-fluoro-2-(((2R,7aS)-2-fluorohexahydro-1H-pyrrolizin-7a-yl)methoxy)-7-(8-(methoxymethyl)naphthalen-1-yl)pyrido[4,3-d]pyrimidine] — 4.9-fold higher, 238 nM
- Oc1ccc(CC(F)(F)F)c(-c2ncc3c(N4C[C@H]5CC[C@@H](C4)N5)nc(OC[C@@]45CCCN4C[C@H](F)C5)nc3c2F)c1 [Example 424, 3-(4-((1R,5S)-3,8-diazabicyclo[3.2.1]octan-3-yl)-8-fluoro-2-(((2R,7aS)-2-fluorohexahydro-1H-pyrrolizin-7a-yl)methoxy)pyrido[4,3-d]pyrimidin-7-yl)-4-(2,2,2-trifluoroethyl)phenol] — 9.7-fold lower, 5 nM
- Fc1c(-c2cccc3cccc(Cl)c23)ncc2c(N3C[C@H]4CC[C@@H](C3)N4)nc(OCC34CC(F)CN3CC(F)C4)nc12 (stereo partly drawn) [Example 425, 4-((1R,5S)-3,8-diazabicyclo[3.2.1]octan-3-yl)-7-(8-chloronaphthalen-1-yl)-2-((2,6-difluorohexahydro-1H-pyrrolizin-7a-yl)methoxy)-8-fluoropyrido[4,3-d]pyrimidine] — 1.9-fold higher, 90.2 nM
- CCc1c(F)ccc2cccc(-c3ncc4c(N5C[C@H]6CC[C@@H](C5)N6)nc(OCC56CCCN5CCC6)nc4c3F)c12 [Example 426, 4-((1R,5S)-3,8-diazabicyclo[3.2.1]octan-3-yl)-7-(8-ethyl-7-fluoronaphthalen-1-yl)-8-fluoro-2-((hexahydro-1H-pyrrolizin-7a-yl)methoxy)pyrido[4,3-d]pyrimidine] — 54-fold lower, 0.9 nM
- CCn1ccc2cccc(-c3ncc4c(N5C[C@H]6CC[C@@H](C5)N6)nc(OCC56CCCN5CCC6)nc4c3F)c21 [Example 427, 4-((1R,5S)-3,8-diazabicyclo[3.2.1]octan-3-yl)-7-(1-ethyl-1H-indol-7-yl)-8-fluoro-2-((hexahydro-1H-pyrrolizin-7a-yl)methoxy)pyrido[4,3-d]pyrimidine] — within 1.5-fold, 35.3 nM
- Fc1c(-c2cccc3c2CCC3)ncc2c(N3CC4CCC(C3)N4)nc(OC[C@@]34CCCN3C[C@H](F)C4)nc12 [Example 428, 4-(3,8-diazabicyclo[3.2.1]octan-3-yl)-7-(2,3-dihydro-1H-inden-4-yl)-8-fluoro-2-(((2R,7aS)-2-fluorotetrahydro-1H-pyrrolizin-7a(5H)-yl)methoxy)pyrido[4,3-d]pyrimidine] — 1.9-fold higher, 92.1 nM
- CC1CCc2cccc(-c3ncc4c(N5CC6CCC(C5)N6)nc(OC[C@@]56CCCN5C[C@H](F)C6)nc4c3F)c21 (stereo partly drawn) [Example 429, 4-(3,8-diazabicyclo[3.2.1]octan-3-yl)-8-fluoro-2-(((2R,7aS)-2-fluorotetrahydro-1H-pyrrolizin-7a(5H)-yl)methoxy)-7-(3-methyl-2,3-dihydro-1H-inden-4-yl)pyrido[4,3-d]pyrimidine] — 2.6-fold lower, 18.5 nM
- Fc1ccc2cccc(-c3ncc4c(N5C[C@H]6CC[C@@H](C5)N6)nc(OC[C@@]56CCCN5C[C@H](F)C6)nc4c3F)c2c1F [Example 430, 4-((1R,5S)-3,8-diazabicyclo[3.2.1]octan-3-yl)-7-(7,8-difluoronaphthalen-1-yl)-8-fluoro-2-(((2R,7aS)-2-fluorotetrahydro-1H-pyrrolizin-7a(5H)-yl)methoxy)pyrido[4,3-d]pyrimidine] — 48-fold lower, 1 nM
- CCc1cccc2cc(O)cc(-c3ncc4c(N5C[C@H]6CC[C@@H](C5)N6)nc(OC[C@]56CCCN5[C@@H](COC(=O)NC)CC6)nc4c3F)c12 [Example 433, ((3R,7aR)-7a-(((4-((1R,5S)-3,8-diazabicyclo[3.2.1]octan-3-yl)-7-(8-ethyl-3-hydroxynaphthalen-1-yl)-8-fluoropyrido[4,3-d]pyrimidin-2-yl)oxy)methyl)hexahydro-1H-pyrrolizin-3-yl)methyl methylcarbamate] — 54-fold lower, 0.9 nM
- CCc1cccc2cc(O)cc(-c3ncc4c(N5CC6CCC(C5)N6)nc(OC[C@]56CCCN5[C@@H](COC(=O)N(C)C)CC6)nc4c3F)c12 [Example 434, 7a-(((4-((1R,5S)-3,8-diazabicyclo[3.2.1]octan-3-yl)-7-(8-ethyl-3-hydroxynaphthalen-1-yl)-8-fluoropyrido[4,3-d]pyrimidin-2-yl)oxy)methyl)hexahydro-1H-pyrrolizin-3-yl)methyl dimethyl carbamate] — 69-fold lower, 0.7 nM
- CNC(=O)O[C@@H]1CN2CCC[C@]2(COc2nc(N3C[C@H]4CC[C@@H](C3)N4)c3cnc(-c4cccc5cccc(Cl)c45)c(F)c3n2)C1 [Example 435, (2S,7aR)-7a-(((4-((1R,5S)-3,8-diazabicyclo[3.2.1]octan-3-yl)-7-(8-chloronaphthalen-1-yl)-8-fluoropyrido[4,3-d]pyrimidin-2-yl)oxy)methyl)hexahydro-1H-pyrrolizin-2-yl methylcarbamate] — 1.7-fold lower, 28.2 nM
- Fc1c(-c2cccc3c2C(C2CC2)CC3)ncc2c(N3CC4CCC(C3)N4)nc(OC[C@@]34CCCN3C[C@H](F)C4)nc12 (stereo partly drawn) [Example 437, 4-(3,8-diazabicyclo[3.2.1]octan-3-yl)-7-(3-cyclopropyl-2,3-dihydro-1H-inden-4-yl)-8-fluoro-2-(((2R,7aS)-2-fluorotetrahydro-1H-pyrrolizin-7a(5H)-yl)methoxy)pyrido[4,3-d]pyrimidine] — 4.8-fold higher, 234 nM
- Fc1c(-c2cccc3c2CC2CC32)ncc2c(N3CC4CCC(C3)N4)nc(OC[C@@]34CCCN3C[C@H](F)C4)nc12 (stereo partly drawn) [Example 438, 4-(3,8-diazabicyclo[3.2.1]octan-3-yl)-8-fluoro-2-(((2R,7aS)-2-fluorotetrahydro-1H-pyrrolizin-7a(5H)-yl)methoxy)-7-(1,1a,6,6a-tetrahydrocyclopropa[a]inden-5-yl)pyrido[4,3-d]pyrimidine] — 2.4-fold lower, 20.1 nM
- C#Cc1c(F)ccc2cccc(-c3ncc4c(N5C[C@H]6CC[C@@H](C5)N6)nc(OC[C@]56CCCN5[C@@H](COC(=O)N(C)C)CC6)nc4c3F)c12 [Example 439, ((3R,7aR)-7a-(((4-((1R,5S)-3,8-diazabicyclo[3.2.1]octan-3-yl)-7-(8-ethynyl-7-fluoronaphthalen-1-yl)-8-fluoropyrido[4,3-d]pyrimidin-2-yl)oxy)methyl)hexahydro-1H-pyrrolizin-3-yl)methyl dimethylcarbamate] — 120-fold lower, 0.4 nM
- CCc1c(F)ccc2cc(O)cc(-c3ncc4c(N5C[C@H]6CC[C@@H](C5)N6)nc(OC[C@]56CCCN5[C@@H](COC(=O)N(C)C)CC6)nc4c3F)c12 [Example 441, ((3R,7aR)-7a-(((4-((1R,5S)-3,8-diazabicyclo[3.2.1]octan-3-yl)-7-(8-ethyl-7-fluoro-3-hydroxynaphthalen-1-yl)-8-fluoropyrido[4,3-d]pyrimidin-2-yl)oxy)methyl)hexahydro-1H-pyrrolizin-3-yl)methyl dimethylcarbamate] — 97-fold lower, 0.5 nM
- O=C1OCCN1C[C@H]1CC[C@@]2(COc3nc(N4CC5CCC(C4)N5)c4cnc(-c5cccc6cccc(Cl)c56)c(F)c4n3)CCCN12 [Example 442, 3-(((3R,7aR)-7a-(((4-(3,8-diazabicyclo[3.2.1]octan-3-yl)-7-(8-chloronaphthalen-1-yl)-8-fluoropyrido[4,3-d]pyrimidin-2-yl)oxy)methyl)hexahydro-1H-pyrrolizin-3-yl)methyl)oxazolidin-2-one] — 1.9-fold lower, 25 nM
